According to patent publication US20160237146A1, “Methods of Preventing or Reducing Photoreceptor Cell Death” (MASSACHUSETTS EYE AND EAR INFIRMARY, priority 2013, published 2016):
Entries after “also recorded” stand apart in the source; their conditions may differ.

Experiments:
[1] = test system: Fb; details: retina 24 hours after RD, mice kept in 75% oxygen vs room air
Description: RNA was isolated using an RNeasy micro kit (Qiagen, 74004, Valencia, Calif.) for LCM samples or an RNeasy mini kit (Qiagen, 74106, Valencia, Calif.) for whole retina. Total RNA was measured using a nanodrop spectrophotometer (Thermo Scientific, Nanodrop 2000, Waltham, Mass.) then each sample was normalized prior to transcribing cDNA. cDNA was transcribed using superscript III (Invitrogen, 18080-044, Carlsbad, Calif.) then one microliter of cDNA was used for each RTPCR reaction. […] Primers for Cd55 using photoreceptors isolated by LCM were obtained through Integrated DNA Technologies using their online Primer Quest design tool and importing the NCBI ID number for the sequence (Forward 5′-[sequence]-3′ (SEQ ID NO: 5) and Reverse 5′-[sequence]-3′ (SEQ ID NO: 6)). RTPCR was run in triplicate and the average of each CT value used for analysis. All CT values were normalized to beta actin from each sample as an internal control. Final values were determined using the MET method.
After 24 hours the mice were anesthetized under a heavy dose of avertin (2,2,2 tribromo ethanol, Sigma, T4, 840-2) at a working concentration of 10 mg/ml and injected at a dose of 0.25-0.5 mg/gram intraperitoneally. In one group the eyes were enucleated and frozen in OCT compound using isopropanol chilled by dry ice. The eyes were then processed for TUNEL labeling and quantified as described above. […]

[2] = test system: photoreceptor cell death in response to RD; experiment: Mouse model of retinal detachment, TUNEL labeling of the ONL; format: in vivo, mice
Description: Briefly, RD was created in the right eye of adult mice (8-12 weeks), as previously reported (Hisatomi, T. et al., Am J Pathol, 2001, 158:1271-1278), with minor modification. Briefly, mice were anesthetized using a mixture of ketamine (80 mg/kg) and xylazine (8 mg/kg). Deep anesthesia was confirmed by a toe pinch test. One drop of proparacaine hydrochloride (0.5%) (Akorn, 17478-263-12) was administered to each eye. A self-sealing scleral incision was made using a 30 G needle. Next, an anterior chamber puncture was performed from the cornea to reduce intraocular pressure. A 33 G needle attached to a Hamilton 10 μl syringe was inserted into the subretinal space, and 4 μl sodium hyaluronate (Provisc®, Alcon) was gently injected to enlarge the RD (fundus Image of a retinal detachment; FIG. 7A) (Matsumoto, H. et al., J Vis Exp, 2013, (79)). After the injection, glue (Webglue™) was put on the scleral wound and the conjunctiva reattached to the original position. Photoreceptor apoptosis was assessed (12-72 hours post detachment) by identifying TUNEL positive cells in cross sections (FIGS. 7C and D).
Twenty-four hours post-injury, retinas were isolated and cross-sections were prepared for staining with DAPI (a nuclear marker) and TUNEL (a cell death marker). The mid-point of the retinal arc between the optic nerve and the edge of the retina was quantified for TUNEL positive cells.
The model of retinal detachment was performed precisely as described above with one modification: Prior to injecting the provisc 1 μl of the purified C3 antibody (0.1 μg) or IgG2a isotype control (Life Technologies, 02-9688) was injected into the sub-retinal space through the scleral tunnel. The eyes were enucleated 24 hours after RD and processed for TUNEL labeling as described earlier.

Molecule | Fb expression, alternative pathway activation [1] | cell death (TUNEL positive cells in the ONL) ([2]; mice housed 24 hours after RD in a 75% oxygen chamber vs room air (approximately 21% oxygen)) | photoreceptor cell death (TUNEL positive cells in the ONL) ([2]; C3-/- mice, sub-retinal injection prior to Provisc, 24 hours after RD, vs PBS)
O=O [75% oxygen, oxygen] | significantly less Fb expression | significant reduction in cell death | –
cobra venom factor [CVF] | – | – | significant up-regulation of photoreceptor cell death; also recorded: increased photoreceptor cell death after RD
